Consider 13 molecules from patent US7847058B2, “Method of modulating cell survival, differentiation and/or synaptic plasticity” (priority 2003, dated 2010).

Data set [1] deals with cerebellar granule neurons (CGN). Kind of data set: Neurite outgrowth of CGN in co-culture with fibroblasts with (LBN) or without (LVN) NCAM expression. In kind it is cell-based, rat. The settings on record: co-cultures of PC12-E2 or CGN cells with fibroblasts expressing NCAM; cell type not specified.
Data set [2] shares this test system. Put plainly: Neurite outgrowth of CGN grown as single neurons in primary culture. In kind it is cell-based, rat. The settings on record: 24 h, different concentrations of the peptide in growth media. On the procedure:
(§1) Cerebellar granule neurons (CGN) were prepared from Wistar rat pups of postnatal day 3. Cerebellar tissue was dissected in modified Krebs-Ringer solution kept on ice, and treated as described for the hippocampal neurons above. All cell cultures were incubated at 37° C. in a humidified atmosphere containing 5% CO2. All animals were handled in accordance with the national guidelines for animal welfare. Primary cultures of CGN were plated at a density of 100,000 cells/cm^2 on poly-L-lysine coated 8-well permanox slides in Neurobasal-A medium (Gibco, BRL) supplemented with 2% (v/v) B27, 0.5% (v/v) glutamax, 100 U/ml penicillin, 100 μg/ml streptomycin and KCl, making the final concentration of KCl in the medium 40 mM. 24 hours after plating, cytosine-β-D-arabinofuranoside (Ara-C; Sigma-Aldrich) was added to a final concentration of 10 μM to avoid proliferation of glial cells, after which the neurons were allowed to differentiate for further six days at 37° C.
(§2) To evaluate the length of neurites of CGN, the neurons were fixed after 24 hours in culture with 4% (v/v) formaldehyde for 20 minutes and thereafter immunostained using primary rabbit antibodies against GAP-43 and Alexa Fluor secondary goat anti-rabbit antibodies. Images of at least 200 neurons for each group in each individual experiment were obtained systematically by using computer assisted fluorescence microscopy
(§3) The total neurite length per cell was analyzed using the software ProcessLength (Rønn et al., 2000). Five independent experiments with the Ig3 module, its mutants, and the individual peptides were performed. In each experiment neurites from 200-300 cells were analyzed. In order to compare results of individual experiments and due to the inherently high variability of cell experiments, the data were normalized setting the difference between the average neurite length of PC12-E2 cells grown on NCAM-140-transfected and vector-transfected fibroblasts to 100%. Statistical evaluations were performed using a two-sided Student's t-test.

In data set [3] the test system is NCAM-expressing PC12-E2 cells. Put plainly: Neurite outgrowth of PC12-E2 cells grown on a confluent monolayer of NCAM-140- or vector-transfected L929 fibroblasts. Format: cell-based. The settings on record: co-culture 24 h; for NCAM-induced neurite outgrowth of PC12-E2 cells grown on NCAM-140-transfected (LBN) fibroblasts: Ig3 wt, Ig3mut1, Ig3mut2 at 500 μg ml^−1. On the procedure:
The NCAM-expressing pheochromocytoma PC12-E2 cell line (Wu and Bradshaw, 1995) was a gift from Dr. Klaus Seedorf, Hagedorn Research Institute, Denmark. The cells were grown in Dulbecco's Modified Eagle's Medium (DMEM) supplemented with 5% v/v fetal calf serum (FCS) and 10% v/v horse serum (HS), 100 U ml^−1 penicillin, 100 μg ml^−1 streptomycin (all from Gibco BRL) at 37° C. in a humidified atmosphere containing 5% CO2.
The fibroblastoid mouse cell line, L929 (European Cell Culture Collection), was stably transfected with the eukaryotic expression vector pHβ-Apr-1-neo (Gunning et al., 1987) containing a full-length cDNA encoding human 140 kDa NCAM-B or the vector alone. […] The cells were routinely grown at 37° C., 5% CO2 in DMEM supplemented with 10% v/v FCS, 100 U ml^−1 penicillin, and 100 μg ml^−1 streptomycin. For analysis of neurite outgrowth, PC12-E2 cells (8,000 cells per well) were seeded on top of a confluent monolayer of transfected fibroblastoid L929 cells in four-well LabTek Tissue Culture Chamber Slides (NUNC). The cells were grown for 24 h in DMEM supplemented with 1% v/v HS, before analysis.
(§4) Ig3 wt, Ig3mut1, and Ig3mut2 were tested at a concentration of 500 μg ml^−1.
To evaluate the length of processes of PC12-E2 cells, the co-cultures were fixed in 4% w/v paraformaldehyde for 25 min. After washing in PBS, cells were blocked with 10% v/v goat serum (DAKO) for 30 min and subsequently incubated for 1 h at room temperature with a mouse monoclonal anti-Thy-1 antibody (Caltag Laboratories) (1:100 in PBS containing 10% v/v goat serum). After washing, cells were incubated for 1 h at room temperature with Alexa-Fluor 568™ goat anti-mouse IgG (Molecular Probes) (1:1000 in PBS containing 10% goat serum). All washes were performed for 10 min in PBS, and repeated three times.
as §3

Data set [4] concerns NCAM-mediated cell aggregation. The settings on record: Soroka et al., 2002; cited from earlier work.
Data set [5] relates to cerebellar granule neurons (CGN). Put plainly: Neurite outgrowth of CGN in co-culture with fibroblasts with (LBN) or without (LVN) NCAM expression. The settings on record: for NCAM-dependent neurite outgrowth of CGN in co-cultures of CGN and LBN-cells: fibroblasts with NCAM expression (LBN); for NCAM-independent neurite outgrowth of CGN in both cultures: single-neuron primary culture 24 h and co-culture with fibroblasts. Format: cell-based, rat. On the procedure: as §1, §4, §2, §3

Data set [6] in a line: Dynamic light scattering (DLS) of recombinant proteins in solution. In kind it is physicochemical. The settings on record: deglycosylated protein, 4 mg ml^−1, PBS pH 7.4, 18° C. On the procedure:
Measurements were performed using a DynaPro-MS/X instrument (Protein Solutions) at 18° C. The deglycosylated preparations of Ig1-2-3 (4 mg ml^−1), Ig1-2-3mut (4 mg ml^−1) and Ig3 (10 mg ml^−1) in PBS pH 7.4 were used to determine the molecular weight of the recombinant proteins in solution.

Positions count from the first letter of the chain named. Names and notes keep the numbering of the source. “Also recorded” adds a separate entry of the source.

In the case of “DVRRGIKKTD (H-DVRRGIKKTD-NH2) [P2-CD, represents the Ig2-to-Ig3 contact, Ig2 module]”, in data set [1], the “NCAM-stimulated neurite outgrowth in co-cultures” value (from here on “NCAM-stimulated neurite outgrowth”) was “did not affect”. Besides, the “neurite outgrowth (differentiation) of single CGN in primary culture” value (“neurite outgrowth (differentiation)” below) in data set [2] is “very capable stimulators”.

As for “TLVADADGFPEP (H-TLVADADGFPEP-NH2) [P3-B, control peptide covering the B β-strand and B-C loop of the Ig3 module, reference compound]”, the “NCAM-induced neurite outgrowth of PC12-E2 cells grown on NCAM-140-transfected (LBN) fibroblasts” value (“NCAM-induced neurite outgrowth” for short) in data set [3] is reported as “not active”.

For “SIHLKVFAK (H-SIHLKVFAK-NH2) [P3-G, C-terminal part of the G β-strand of Ig3]”, in data set [3], the “NCAM-induced neurite outgrowth” value is “inhibitory effects comparable to the effect of Ig3 wt; also recorded: inhibited”. Besides, the “NCAM-stimulated neurite outgrowth” value in data set [1] is “did not affect”. Besides, the “neurite outgrowth (differentiation)” value in data set [2] is reported as “very capable stimulators”.

As to “QIRGIKKTD (H-QIRGIKKTD-NH2) [P2-EF, represents the Ig2-to-Ig3 contact, Ig2 module]”, the “NCAM-stimulated neurite outgrowth” value in data set [1] is listed as “did not affect”. The “neurite outgrowth (differentiation)” value in data set [2] is given as “very capable stimulators”.

As for “GEISVGESKFFL (H-GEISVGESKFFL-NH2) [P1-B, covers the B β-strand of Ig1, represents the Ig1-to-Ig2 contact]”, the “NCAM-induced neurite outgrowth” value in data set [3] is “inhibitory effects comparable to the effect of Ig3 wt; also recorded: inhibited”.

For the molecule “GRILARGEINFK (rat NCAM Ig2 fragment amino acid residues 172-182) [P2 peptide]”, the “effect on cell aggregation” value in data set [4] is reported as “inhibitory effect”.

“QEFKEGEDAVIV (H-QEFKEGEDAVIV-NH2) [P2-A′B, represents the Ig2-to-Ig2 contact]”: in data set [5], the “NCAM-dependent neurite outgrowth of CGN in co-cultures of CGN and LBN-cells” value was “inhibits; also recorded: capable modulating”; the “NCAM-independent neurite outgrowth of CGN in both cultures” value is reported as “does not affect”. Also, the “neurite outgrowth (differentiation)” value in data set [2] is recorded as “did not stimulate”.

As to “KHIFSDDSSELTIRNVDKNDE (H-KHIFSDDSSELTIRNVDKNDE-NH2) [P3-DE, covers D and E β-strands and E-F loop of the Ig3 module]”, in data set [3], the “NCAM-induced neurite outgrowth” value was “inhibitory effects comparable to the effect of Ig3 wt; also recorded: inhibited”.

As for “AFSPNGEKLSPNQ (H-AFSPNGEKLSPNQ-NH2) [P1-CD, represents the Ig1-to-Ig3 contact]”, in data set [5], the “NCAM-dependent neurite outgrowth of CGN in co-cultures of CGN and LBN-cells” value is reported as “inhibits; also recorded: capable modulating”; the “NCAM-independent neurite outgrowth of CGN in both cultures” value is recorded as “does not affect”. Besides, the “neurite outgrowth (differentiation)” value in data set [2] is “did not stimulate”.

B1: Ig1-2-3: recombinant Ig1-2-3 fragment of rat NCAM, residues 1-289 (protein)
chain: RVLQVDIVPSQGEISVGESKFFLCQVAGDAKDKDISWFSPNGEKLSPNQQRISVVWNDDDSSTLTIYNANIDDAGIYKCVVTAEDGTQSEATVNVKIFQKLMFKNAPTPQEFKEGEDAVIVCDVVSSLPPTIIWKHKGRDVILKKDVRFIVLSNNYLQIRGIKKTDEGTYRCEGRILARGEINFKDIQVIVNVPPTVQARQSIVNATANLGQSVTLVCDADGFPEPTMSWTKDGEPIENEEEDDEKHIFSDDSSELTIRNVDKNDEAEYVCIAENKAGEQDASIHLKVFAK
modifications: rat NCAM fragment amino acid residues 20-308 and cloning artifacts
B1: the “molecular weight in solution by DLS (oligomeric state)” value in data set [6] is reported as around 78 kDa.

B2: Ig1-2-3mut: Ig1-2-3 mutant containing the substitutions E11A, E16A, and K18A (protein)
chain: B1 chain with E13A, E18A, K20A
Consider B2, for which the “molecular weight in solution by DLS (oligomeric state)” value in data set [6] was around 34 kDa.

B3: Ig3: recombinant Ig3 module of rat NCAM, residues 191-289, produced in P. pastoris (protein)
chain: EAEAYGRILARGEINFKDIQVIVNVPPTVQARQSIVNATANLGQSVTLVCDADGFPEPTMSWTKDGEPIENEEEDDEKHIFSDDSSELTIRNVDKNDEAEYVCI
Turning to B3, the results for the “NCAM-induced neurite outgrowth” value in data set [3] and in data set [3] (listed as Ig3 wt) were “clearly inhibits” and “inhibitory effect”, respectively. Further, the “neurite outgrowth of PC12-E2 cells grown on vector-transfected (LVN) fibroblasts” value in data set [3] (NCAM-negative fibroblasts) is recorded as “does not affect”.

B4: Ig3mut1: Ig3 mutant with substitutions R198A, D249G, E287A (E253A) (protein)
chain: B3 chain with R32A, D83G, E87A
As to B4, the “NCAM-induced neurite outgrowth” value in data set [3] is “inactive”.
